The values that follow come from ChEMBL document CHEMBL1150559 (Bioorg Med Chem Lett, 1997).

Molecules are shown by their SMILES. Values after ≈ are worked out from the molar mass of the structure shown.

Data set [1] concerns the target Substance-P receptor (Cavia porcellus, UniProt P30547). As to the kind of experiment: Antagonism of the guinea pig tachykinin NK1 receptor. The class given is functional.
Data set [2] addresses T1, Histamine H1 receptor (Homo sapiens, UniProt P35367). The class given is functional.
Another data set has as its target T2, Substance-K receptor (Homo sapiens, UniProt P21452).
T2 sequence (P21452 whole entry): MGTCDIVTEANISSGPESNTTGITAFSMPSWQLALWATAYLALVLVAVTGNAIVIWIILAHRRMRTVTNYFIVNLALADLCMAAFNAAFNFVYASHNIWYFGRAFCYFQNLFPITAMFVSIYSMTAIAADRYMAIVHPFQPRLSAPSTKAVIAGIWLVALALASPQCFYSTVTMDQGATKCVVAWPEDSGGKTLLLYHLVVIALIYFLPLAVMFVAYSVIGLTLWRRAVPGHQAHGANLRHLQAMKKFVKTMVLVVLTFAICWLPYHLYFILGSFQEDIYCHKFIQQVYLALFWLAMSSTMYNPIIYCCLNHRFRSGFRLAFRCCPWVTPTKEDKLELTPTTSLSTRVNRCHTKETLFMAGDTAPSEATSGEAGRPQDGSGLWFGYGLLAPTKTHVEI
As to the kind of experiment: Compound was evaluated for the antagonistic activity against Tachykinin receptor 2. The class given is functional.

Data set [3] addresses Substance-P receptor (Homo sapiens, UniProt P25103). In words: Compound was evaluated for the antagonistic activity against NK1 receptor. The class given is functional.
The target in data set [4] is T1, Histamine H1 receptor. As to the kind of experiment: Compound was evaluated for the antagonistic activity against H1 receptor. The class given is functional.
Data set [5] is described as follows: Compound was tested for its solubility at pH 7.4. The class given is physicochemical. Particulars: buffer.
For data set [6], the species on record is Cavia porcellus. In words: Compound with maleate salt was tested for inhibition of histamine-induced skin wheal response in guinea pigs. The class given is functional.
Data set [7] in a line: Dose-dependent inhibition of SP-induced increases in phosphatidylinositol turnover in UC11 cells. The class given is functional, cell-based. Particulars: Homo sapiens, read-out: pA2 (converted).
The nature of data set [8]: Compound was calculated log P. Particulars: pH 7.4.
The species entered for data set [9] is Cavia porcellus. As to the kind of experiment: Inhibition of histamine-induced contraction of guinea pig ileum in a concentration-dependent fashion. The class given is functional. Particulars: read-out: pA2 (converted).

T1 sequence (P35367 whole entry): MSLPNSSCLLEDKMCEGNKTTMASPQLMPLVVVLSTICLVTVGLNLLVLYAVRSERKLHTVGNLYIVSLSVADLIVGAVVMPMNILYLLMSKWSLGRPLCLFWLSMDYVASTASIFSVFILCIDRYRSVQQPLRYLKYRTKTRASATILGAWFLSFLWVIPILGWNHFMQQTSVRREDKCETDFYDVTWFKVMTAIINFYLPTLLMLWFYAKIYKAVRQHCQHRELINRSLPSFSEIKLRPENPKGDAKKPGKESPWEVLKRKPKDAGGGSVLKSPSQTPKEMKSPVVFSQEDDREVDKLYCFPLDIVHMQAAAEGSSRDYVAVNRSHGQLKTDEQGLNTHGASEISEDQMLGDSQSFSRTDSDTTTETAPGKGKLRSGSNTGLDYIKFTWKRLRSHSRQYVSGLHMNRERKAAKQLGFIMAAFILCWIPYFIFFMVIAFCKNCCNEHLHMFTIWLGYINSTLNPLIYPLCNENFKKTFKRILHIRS
Chain of Substance-P receptor (Cavia porcellus, UniProt P30547) (P30547 whole entry): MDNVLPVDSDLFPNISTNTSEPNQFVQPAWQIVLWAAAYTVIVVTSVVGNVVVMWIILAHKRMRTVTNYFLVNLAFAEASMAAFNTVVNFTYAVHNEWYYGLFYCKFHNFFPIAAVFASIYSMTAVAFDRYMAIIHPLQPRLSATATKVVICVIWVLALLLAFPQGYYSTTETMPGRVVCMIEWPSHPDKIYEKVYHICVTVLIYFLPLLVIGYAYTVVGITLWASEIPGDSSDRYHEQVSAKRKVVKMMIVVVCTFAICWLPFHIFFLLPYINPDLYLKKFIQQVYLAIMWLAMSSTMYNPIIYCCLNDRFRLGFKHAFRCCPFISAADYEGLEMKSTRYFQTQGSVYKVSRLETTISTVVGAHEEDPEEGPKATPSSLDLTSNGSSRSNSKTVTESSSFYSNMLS
Chain of Substance-P receptor (Homo sapiens, UniProt P25103) (P25103 whole entry): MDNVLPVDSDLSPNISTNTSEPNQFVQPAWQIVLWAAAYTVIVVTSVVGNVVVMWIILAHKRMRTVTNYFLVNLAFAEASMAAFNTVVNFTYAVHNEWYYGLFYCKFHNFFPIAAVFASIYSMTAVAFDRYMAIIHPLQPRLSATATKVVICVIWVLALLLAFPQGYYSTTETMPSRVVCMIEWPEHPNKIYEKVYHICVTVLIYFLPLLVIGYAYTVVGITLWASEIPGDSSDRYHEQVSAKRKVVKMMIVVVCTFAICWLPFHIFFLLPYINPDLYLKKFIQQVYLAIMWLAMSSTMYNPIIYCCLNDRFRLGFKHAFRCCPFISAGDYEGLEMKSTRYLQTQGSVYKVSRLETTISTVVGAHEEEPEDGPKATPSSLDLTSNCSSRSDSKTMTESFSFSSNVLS

Broadly, the IC50 is the concentration that gives 50% inhibition. A high value points to weaker potency. On to `COc1cc(C(=O)N2CCC(CCN3CCC(C(=O)c4nc5ccccc5n4Cc4ccc(F)cc4)CC3)(c3ccc(F)cc3F)C2)cc(OC)c1OC` (centres undefined), for which inhibition against Substance-P receptor [1] was half-maximal at 296 nM (IC50). This lies in the sub-micromolar range.

Take `COC(=O)c1ccccc1OCCCn1c(C(=O)C2CCN(CCC3(c4ccccc4)CCN(C(=O)c4cc(OC)c(OC)c(OC)c4)C3)CC2)nc2ccccc21` (centres undefined): the half-maximal inhibitory concentration (IC50) was found to be 16 nM on Substance-P receptor [1] and 994 nM on Histamine H1 receptor [2].

Take `CCOCCn1c(C(=O)C2CCN(CCC3(c4ccccc4)CCN(C(=O)c4cc(OC)c(OC)c(OC)c4)C3)CC2)nc2ccccc21` (centres undefined): it took 26 nM to reach half-maximal inhibition against Substance-P receptor [1] (IC50).

For `COC(=O)c1ccc(Cn2c(C(=O)C3CCN(CCC4(c5ccccc5)CCN(C(=O)c5cc(OC)c(OC)c(OC)c5)C4)CC3)nc3ccccc32)cc1` (centres undefined), the IC50 against Substance-P receptor [1] is 23 nM; on Histamine H1 receptor [2], 1210 nM.

Regarding `COc1cc(C(=O)N2CCC(CCN3CCC(C(=O)c4nc5ccccc5n4CCOCc4ccco4)CC3)(c3ccccc3)C2)cc(OC)c1OC` (centres undefined), the IC50 against Substance-P receptor [1] came out at 12 nM; on Histamine H1 receptor [2] it was 446 nM.

In turn, `COc1cc(C(=O)N2CCC(CCN3CCC(C(=O)c4nc5ccccc5n4Cc4cccnc4)CC3)(c3ccccc3)C2)cc(OC)c1OC` (centres undefined) registered an IC50 at Substance-P receptor [1] of 27 nM.

As to `COc1cc(C(=O)N2CC[C@](CCN3CCC(C(N)=O)(c4ccccc4)CC3)(c3ccc(Cl)c(Cl)c3)C2)cc(OC)c1OC`, the IC50 against Substance-K receptor is 8 nM; at Substance-P receptor [3] it was 3 nM; against Histamine H1 receptor [4], 10000 nM.

`COc1cc(C(=O)N2CCC(CCN3CCC(C(=O)c4nc5ccccc5n4Cc4ccc(F)cc4)CC3)(c3ccc(Cl)c(Cl)c3)C2)cc(OC)c1OC` (centres undefined): the concentration for half-maximal inhibition (IC50) at Substance-P receptor [1] is 92 nM; on Histamine H1 receptor [2], 124 nM.

In the case of `COc1cc(C(=O)N2CCC(CCN3CCC(C(=O)c4nc5ccccc5[nH]4)CC3)(c3ccccc3)C2)cc(OC)c1OC` (centres undefined), on Substance-P receptor [1], the half-maximal inhibitory concentration (IC50) was determined as 36 nM. That is a double-digit nanomolar value.

On Substance-P receptor [1], `COc1cc(C(=O)N2CCC(CCN3CCC(C(=O)c4nc5ccccc5n4Cc4ccncc4)CC3)(c3ccccc3)C2)cc(OC)c1OC` (centres undefined) gave an IC50 of 37 nM.

On Substance-P receptor [1], `COc1ccc(C2(CCN3CCC(C(=O)c4nc5ccccc5n4Cc4ccccn4)CC3)CCN(C(=O)c3cc(OC)c(OC)c(OC)c3)C2)cc1` (centres undefined) registered an IC50 of 42 nM.

Regarding `COc1cc(C(=O)N2CCC(CCN3CCC(C(=O)c4nc5ccccc5n4Cc4ccc(F)cc4)CC3)(c3ccccc3)C2)cc(OC)c1OC` (centres undefined), inhibition on Substance-P receptor [1] was half-maximal at 34 nM (IC50). The IC50 values of the last two molecules are within 1.5-fold of each other.

`COc1cc(C(=O)N2CCC(CCN3CCC(C(=O)c4nc5ccccc5n4Cc4ccccn4)CC3)(c3ccc(Cl)c(Cl)c3)C2)cc(OC)c1OC` (centres undefined) displayed an IC50 on Substance-P receptor [1] of 32 nM. The IC50 values of the last two molecules are within 1.5-fold of each other.

Consider `COc1cc(C(=O)N2CCC(CCN3CCC(C(=O)c4nc5ccccc5n4Cc4ccc(C(=O)O)cc4)CC3)(c3ccccc3)C2)cc(OC)c1OC` (centres undefined), for which the half-inhibitory concentration (IC50) on Substance-P receptor [1] came to 36 nM; against Histamine H1 receptor [2], 3420 nM.

As to `COc1cc(C(=O)N2CCC(CCN3CCC(C(=O)c4nc5ccccc5n4CCCOc4ccccc4C(=O)O)CC3)(c3ccccc3)C2)cc(OC)c1OC` (centres undefined), the IC50 at Substance-P receptor [1] was found to be 27 nM; against Histamine H1 receptor [2] it was 9450 nM.

As usually defined, the solubility is the dissolved amount per volume that the medium holds. In general, ED50 refers to the dose that gives a 50% effect, or the effect in half of the subjects. As a reminder, the logP is the decadic logarithm of the partition coefficient of the neutral form, usually between octanol and water. With `COc1ccc(C2(CCN3CCC(C(=O)c4nc5ccccc5n4Cc4ccc(F)cc4)CC3)CCN(C(=O)c3cc(OC)c(OC)c(OC)c3)C2)cc1OC` (centres undefined), the solubility in data set [5] is under 0.1 µg/mL. Besides, the 50% effective dose (ED50) in the data set listed under Cavia porcellus [6] came out at 18.9 mg/kg. The values for the Kb (in [7]; in the data set listed under Cavia porcellus [9]) were 66.1 nM and 30.2 nM, respectively. For the same molecule, the logP in data set [8] is 4.72. The molecule further returned a concentration for half-maximal inhibition (IC50) against Histamine H1 receptor [2] of 309 nM.

Molecule `COc1cc(C(=O)N2CCC(CCN3CCC(C(=O)c4nc5ccccc5n4Cc4ccc(F)cc4)CC3)(c3ccc(C(F)(F)F)cc3)C2)cc(OC)c1OC` (centres undefined) yielded an IC50 against Substance-P receptor [1] of 117 nM.

As to `COc1ccc(CCN2CCC(C(=O)c3nc4ccccc4n3Cc3ccc(F)cc3)CC2)cc1`, the IC50 against Substance-K receptor was found to be 3390 nM; against Substance-P receptor [3] it was 5200 nM.

Take `COc1cc(C(=O)N2CCC(CCN3CCC(C(=O)c4nc5ccccc5n4Cc4ccco4)CC3)(c3ccccc3)C2)cc(OC)c1OC` (centres undefined): the 50% inhibitory concentration (IC50) at Substance-P receptor [1] stood at 21 nM.

As to `COc1cc(C(=O)N2CCC(CCN3CCC(C(=O)c4nc5ccccc5n4Cc4ccccn4)CC3)(c3ccccc3)C2)cc(OC)c1OC` (centres undefined), the concentration in solution in data set [5] (solubility) was 38 µg/mL (≈ 55.2 µM). Besides, in the data set listed under Cavia porcellus [6], the ED50 came out at 10.3 mg/kg. Also, the logP in [8] is 3.22. This molecule also registered a half-inhibitory concentration (IC50) on Substance-P receptor [1] of 27 nM.

At Histamine H1 receptor [2], `COc1ccccc1CN[C@H]1C2CCN(CC2)[C@H]1C(c1ccccc1)c1ccccc1` [CP-96345] displayed an IC50 of about 10000 nM.

`CC(C)(C)c1ccc(C(O)CCCN2CCC(C(O)(c3ccccc3)c3ccccc3)CC2)cc1` (centres undefined) [TERFENADINE] came in with a half-maximal inhibitory concentration (IC50) against Substance-P receptor [1] of over 10000 nM.
